Measured values: paper PMC10788915, “Fragment Merging, Growing, and Linking Identify New Trypanothione Reductase Inhibitors for Leishmaniasis” (Journal of Medicinal Chemistry, 2024)
Read-outs that look alike come from different tables or passages of the source.

Tested on: L. infantum intramacrophage amastigotes
Assay: Ex vivo inhibition of intramacrophage amastigote growth
Assay type: cell-based, Leishmania infantum
Conditions: for EC50: 72 h, murine macrophages infected with L. infantum amastigotes, read-out: intramacrophage amastigote EC50 ± SE (95% CI)
Protocol: Balb/c murine macrophages were used to perform ex vivo assay since the parasites infect them more effectively. Macrophages (5 × 10^5/well) were placed on glass coverslips within a 24-well culture plate and incubated with complete RPMI in a 5% CO2 incubator at 37 °C for 4 h to achieve cell adhesion. After this time, L. infantum amastigotes from spleens of previously infected hamsters were added onto the macrophages adhering to the coverslips at the ratio of 10:1 (parasites/macrophages). After 24 h of infection, the noninternalized amastigotes were removed by washes with RPMI. The infected macrophages were incubated with complete RPMI medium (control) or medium containing different concentrations of compounds in a 5% CO2 incubator at 37 °C for 72 h. Then, the coverslips were fixed with methanol, stained with Giemsa 10%, and analyzed by optical microscopy. The percentage of the infected macrophages and the number of amastigotes per infected macrophage were determined by random counting of 100 cells in each coverslip. Infection was judged to be adequate if more than 70% of the macrophages in the untreated control were infected. Activity for each compound was expressed as percentage of parasite burden reduction = infectivity index of treated cells/infectivity index of untreated cells. The infectivity index was calculated as follows: number of infected macrophages × mean number of amastigotes per macrophage / total number of macrophages. Nonlinear regression analysis (Graph-Pad Software Inc., San Diego, USA) was used for curve fitting and calculation of 50% inhibitory concentrations (IC50). The experiments were performed in triplicate, and two independent experiments were conducted.

Compound	EC50 (Leishmania infantum, Macrophage, in Mus musculus)	EC50	intramacrophage amastigote reduction (at 12.5 μM)
C[N+]1(CCCc2ccccc2)CCN(C(=O)N(Cc2ccc(C(=O)NCCc3ccc(F)cc3)o2)c2ccc(F)cc2)CC1.[I-] [Compound 9, 4-(((5-((4-Fluorophenethyl)carbamoyl)furan-2-yl)methyl)(4-fluorophenyl)carbamoyl)-1-methyl-1-(3-phenylpropyl)piperazin-1-ium Iodide]	15.3 µM	15.3 ± 2.3 µM	–
O=C(NCCc1ccc(F)cc1)c1ccc(CNC(=O)N2CC[N+](CCCc3ccccc3)(Cc3ccc(Cl)c(Cl)c3)CC2)o1.[I-] [Compound 14, 1-(3,4-Dichlorobenzyl)-4-(((5-((4-fluorophenethyl)carbamoyl)furan-2-yl)methyl)carbamoyl)-1-(3-phenylpropyl)piperazin-1-ium Iodide]	–	–	40% of reduction at 12.5 μM
